# Measurements reported in patent US8354246B2, “Non-MCCJ25-related lariat-peptide inhibitors of bacterial RNA polymerase” (priority 2006, dated 2013).
# Bridge positions count the residues as written; N and C are the ends. Peptide text beside a SMILES is read from it.
# Tests used:
# [1] = biological target: T1, Thermus thermophilus σ^A RNAP holoenzyme (Thermus thermophilus, UniProt Q8RQE8); experiment: fluorescence-detected abortive initiation assay; type: biochemical; conditions: lacUV5-12 DNA fragment, 37° C.
# T1 construct: made in house
# Protocol: (§1) Following incubation of reaction mixtures for 5 min at 22° C., 1 μl 1.1 μM DNA fragment lacUV5-12 (Mukhopadhyay et al. (2001) Cell 106, 453-463) was added. Following further incubation of reaction mixtures for […] at 37° C., 0.5 μl 1 mg/ml heparin (Sigma, Inc.; omitted in experiments with T. thermophilus RNAP) and 0.5 μl of 2.75 mM (γ-AmNS)UTP (Molecular Probes, Inc.) were added, and reaction mixtures were transferred to sub-micro fluorometer cuvettes (Starna Cells, Inc.). Following further incubation of reaction mixtures for 2 min at 37° C., RNA synthesis was initiated by addition of 2 μl 11 mM ApA (Sigma, Inc.), and fluorescence emission intensity was monitored for 5 min at 37° C. [excitation wavelength=360 nm and emission wavelength=500 nm; excitation and emission slit widths=4 nm; QuantaMaster QM1 spectrofluorometer (PTI, Inc.)]. The quantity of UMP incorporated into RNA was determined from the quantity of (γ-AmNS) UTP consumed, which, in turn, was calculated as follows (Schlageck et al. 1979): (γ-AmNS)UTPconsumed=[(γ-AmNS)UTP0](Ft−F0)/(12.4×F0) where (γ-AmNS)UTP0 is the quantity of (γ-AmNS)UTP at time 0, F0 is the fluorescence emission intensity at time 0, and Ft is the fluorescence emission intensity at time t.
# [2] = biological target: T2, Escherichia coli σ^70 RNAP holoenzyme (Escherichia coli, UniProt P0A8T7); experiment: fluorescence-detected abortive initiation assay; type: biochemical; conditions: lacUV5-12 DNA fragment, 37° C.
# T2 construct: purchased Epicentre, Inc
# Protocol: as §1
# [3] = system: Gram-positive bacterial RNAP; conditions: Yuzenkova, et al. (2002); cited from earlier work
# [4] = system: mesophilic endo- and exopeptidease; conditions: tested mesophilic endo- and exopeptidases; cited from earlier work
# [5] = system: Thermus-Deinoccoccus bacterial RNAP; conditions: Yuzenkova, et al. (2002); cited from earlier work
# [6] = tested thermal and chemical denaturants; cited from earlier work
Compound,IC50 [1],IC50 [2],inhibition of Gram-positive bacterial RNAP [3],resistance to proteolysis [4],inhibition of Thermus-Deinoccoccus bacterial RNAP [5],resistance to denaturation [6]
C[C@@H](O)[C@@H]1NC(=O)CNC(=O)[C@H](Cc2c[nH]cn2)NC(=O)[C@H](Cc2c[nH]c3ccccc23)NC(=O)[C@H](CC(N)=O)NC(=O)CNC(=O)C[C@@H](C(=O)N[C@@H](Cc2c[nH]c3ccccc23)C(=O)N[C@@H](Cc2ccccc2)C(=O)N[C@@H](Cc2ccccc2)C(=O)N[C@@H](CC(N)=O)C(=O)N[C@@H](Cc2ccc(O)cc2)C(=O)N[C@@H](Cc2ccc(O)cc2)C(=O)N[C@@H](Cc2c[nH]c3ccccc23)C(=O)O)NC(=O)[C@@H]2CCCN2C(=O)[C@H](CO)NC1=O [RES-701-3] (GNWHGTSPDWFFNYYW-OH; lactam N-9; C-terminus assumed),2 µM,20 µM,,,,
Gly1-Gly2-Ala3-Gly4-His5-Pro6-Val7-Glu8-Tyr9-Phe10-Val11-Gly12-Ile13-Gly14-Thr15-Pro16-Ile17-Ser18-Phe19-Tyr20-Gly21 cyclic(8→1) peptide [MccJ25],,,does not inhibit,complete resistance to tested mesophilic endo- and exopeptidease,does not inhibit,complete resistance to tested thermal and chemical denaturants
CC[C@H](C)[C@H](NC(=O)[C@H](Cc1ccccc1)NC(=O)[C@@H](NC(=O)[C@H](Cc1cnc[nH]1)NC(=O)CNC(=O)CNC(=O)[C@H](Cc1ccccc1)NC(=O)[C@H](CC(C)C)NC(=O)[C@@H]1CC(=O)NCC(=O)N[C@@H](Cc2ccc(O)cc2)C(=O)N2CCC[C@H]2C(=O)N[C@@H](Cc2c[nH]c3ccccc23)C(=O)N[C@@H](Cc2c[nH]c3ccccc23)C(=O)N[C@@H](CC(=O)O)C(=O)N[C@@H](Cc2ccc(O)cc2)C(=O)N[C@@H](CCCNC(=N)N)C(=O)N1)[C@@H](C)O)C(=O)N[C@@H](CO)C(=O)N1CCC[C@H]1C(=O)O [propeptin] (GYPWWDYRDLFGGHTFISP-OH; lactam N-9),5 µM,30 µM,,,,
